Reference: patent US10827753B2, “Compositions and methods for controlling nematodes” (Monsanto Technology LLC, priority 2007, dated 2020)
Marks after values point to notes of the source that are not given here.

Experiments:
[1] = test system: Meloidogyne incognita; assay: M. incognita miniaturized greenhouse assay on cucumber seedlings (root galling); assay type: in vivo; parameters: key to 1 ppm gall ratings / 1 ppm gall rating: mean of 3 gall ratings: 0=0-5%, 1=6-20%, 2=21-50%, 3=51-100% root galled; details: for 8 ppm gall ratings: average of triplicate gall rating, scale 0-3 (% root mass galled)
Procedure: The test compound is dissolved in an acetone solution and added to water. A sprouted cucumber seedling is placed into a vial with dry sand and the water-chemical solution is added immediately. Twenty four hours later Meloidogyne incognita eggs are added to the vials and 10 to 12 days later the roots are evaluated for nematode galling.
Cucumber seeds are sprouted for 3 days in moist paper towels. Acceptable sprouts should be 3 to 4 cm long with several lateral roots just emerging. Stock solutions of chemistry are prepared in a mixture of acetone and Triton X100 (412 mg in 500 mL) to a final concentration of 5 mg/mL. The chemical stock solution is then added to 10 mL deionized water plus 0.015% Triton X100 and mixed thoroughly. This is enough to test each condition in triplicate. Ten mL dry sand is added to each vial. At this time the solubility of the chemistry is visually determined and recorded as either ppt (large precipitates) or cloudy (fine precipitates). Seedlings are planted by tilting the vial and laying the seedling in the correct orientation so that the cotyledons are just above the sand and then tilting back to cover the radicles with sand. 3.3 ml water/chemical mix is added to each vial and the vials placed in racks under fluorescent light banks. The vials are inoculated two days after planting by adding 500 vermiform M. incognita eggs to each vial in 50 uL of deionized or spring water. The vials are then kept under the fluorescent lamps at ambient room temperature and watered as needed with 1 mL deionized water, usually twice during duration of test. Harvest of the cucumber plants is done 10 to 12 days after inoculation by washing sand off the roots. A root gall rating and visual phytotoxicity rating is assigned using the following scales: Gall rating scale (Gall: % root mass galled): 0=0-5%; 1=6-20%; 2=21-50%; and 3=51-100%. The average of the triplicate gall rating is then calculated: green=0.00-0.33 (no galls); yellow=0.67-1.33 (mild galling); orange=1.67-2.33 (moderate galling); red=2.67-3.00 (severe galling). Visual phytotoxicity scale is also assigned (Vis. tox; visual reduction in root mass compared to the control): rs1=mild stunting; rs2=moderate stunting; rs3=severe stunting.

[2] = test system: Meloidogyne incognita; assay: Summer field evaluation of pre-plant incorporated compounds on squash; assay type: in vivo; details: 2 kg PPI, squash
Procedure: Test plots of 33 cm diameter holes were bored 41 cm deep into clay soil and filled with a mixture of 80% sand and 20% silt loam soil. Technical compound for each treatment was dissolved in 50 ml acetone containing 250 ul of Triton X-100 surfactant. This solution was added to 450 ml water and poured onto 95 liters of sand/soil mixture in a rotating drum mixer. While continuing to rotate the mixing drum 66 grams of chopped, galled, tomato roots was added and thoroughly distributed. The treated soil was sufficient to fill the top 15 cm of each of the 6 replicate plots, thus simulating a PPI treatment. The plots were then watered lightly and a mixture of M. incognita eggs and larvae were injected 5 cm deep at 5 points within the plot (100 k eggs/larvae in 10 ml per plot). Three-week old squash (cv. Liberator III) with 1 fully expanded true leaf was planted 4 days after soil treatment, one per plot.

For `c1ccc(-c2cc(-c3ccco3)n[nH]2)cc1` [3-(furan-2-yl)-5-phenyl-1H-pyrazole, reference compound], the “nematicidal activity (in words, referring to table 1D)” value ([1]; 8 ppm) was “nematicidal activity is seen”.

`c1ccc(-c2nc(-c3cccs3)cs2)cc1` [compound 1787] was tested, and the “1 ppm gall rating” value ([1]; Table 1D test b) was 3^b (3=51-100%) and the “8 ppm gall rating” value ([1]; 8 ppm, Table 1D test b) was 1.67^b.

For `Brc1ccc(-c2nnc(-c3cccs3)o2)cc1` [compound 4948], the “8 ppm gall ratings” value ([1]; 8 ppm) was 0 (0=0-5%).

In the case of `FC(F)(F)c1ccc(-c2nnc(-c3cccs3)o2)cc1` [compound 4971], the “8 ppm gall ratings” value ([1]; 8 ppm) is reported as 0.67.

In the case of `Cc1ccc(-c2nnc(-c3cccs3)o2)cc1` [compound 5006], the “8 ppm gall ratings” value ([1]; 8 ppm) is reported as 0 (0=0-5%).

With `Clc1cccc(-c2nnc(-c3cccs3)o2)c1` [compound 5012] the “8 ppm gall ratings” value ([1]; 8 ppm) was 0.67.

For `Clc1ccc(-c2nnc(-c3ccco3)o2)cc1` [compound 5082], the “8 ppm gall ratings” value ([1]; 8 ppm) was 1.67.

With `Cc1ccccc1-c1nnc(-c2cccs2)o1` [compound 5090] the “8 ppm gall ratings” value ([1]; 8 ppm) was 1.67.

In the case of `FC(F)(F)c1ccc(-c2nnc(-c3ccco3)o2)cc1` [compound 5132], the “8 ppm gall ratings” value ([1]; 8 ppm) is reported as 1.33.

In the case of `FC(F)(F)c1cccc(-c2noc(-c3ccco3)n2)c1` [compound 5181], the “8 ppm gall ratings” value ([1]; 8 ppm) is reported as 0.33.

`FC(F)(F)c1cccc(-c2noc(-c3cccs3)n2)c1` [compound 5212] was tested, and the “8 ppm gall ratings” value ([1]; 8 ppm) was 1 (1=6-20%).

With `c1cncc(-c2noc(-c3ccco3)n2)c1` [compound 5292] the “8 ppm gall ratings” value ([1]; 8 ppm) was 0.67.

`c1cncc(-c2noc(-c3cccs3)n2)c1` [compound 5297] was tested, and the “8 ppm gall ratings” value ([1]; 8 ppm) was 0.33.

With `c1ccc(-c2noc(-c3ccco3)n2)cc1` [compound 5383] the “1 ppm gall ratings” value ([1]; Table 1B test a) was 1.33^a.

For `c1csc(-c2nnc(-c3cccc4ccccc34)o2)c1` [compound 5456], the “8 ppm gall ratings” value ([1]; 8 ppm) was 0.67.

With `Ic1ccc(-c2noc(-c3cccs3)n2)cc1` [compound 5468] the “8 ppm gall ratings” value ([1]; 8 ppm) was 1 (1=6-20%).

For `Brc1ccc(-c2nc(-c3cccs3)no2)cc1` [compound 5475], the “8 ppm gall ratings” value ([1]; 8 ppm) was 1.33.

In the case of `Fc1ccc(-c2noc(-c3ccco3)n2)cc1` [compound 5478], the “8 ppm gall ratings” value ([1]; 8 ppm) is reported as 0 (0=0-5%).

With `Clc1ccc(-c2nnc(-c3ccco3)o2)c(Cl)c1` [compound 5499] the “1 ppm gall ratings” value ([1]; Table 1B test a) was 1^a (1=6-20%) and the “8 ppm gall ratings” value ([1]; 8 ppm) was 0 (0=0-5%).

In the case of `Ic1ccc(-c2noc(-c3ccco3)n2)cc1` [compound 5556], the “8 ppm gall ratings” value ([1]; 8 ppm) is reported as 0.33.

For `c1ccc(-c2cnc(-c3ccco3)o2)cc1` [compound 5586], the “8 ppm gall ratings” value ([1]; 8 ppm) was 0.67.

For `Brc1ccc(-c2cnc(-c3ccco3)o2)cc1` [compound 5587], the “8 ppm gall ratings” value ([1]; 8 ppm) was 0 (0=0-5%).

In the case of `Fc1ccc(-c2cnc(-c3ccco3)o2)cc1` [compound 5618], the “8 ppm gall ratings” value ([1]; 8 ppm) is reported as 1.33.

In the case of `Cc1cccc(-c2noc(-c3cccs3)n2)c1` [compound 5622], the “8 ppm gall ratings” value ([1]; 8 ppm) is reported as 0 (0=0-5%).

With `Cc1ccc(-c2noc(-c3cccs3)n2)cc1` [compound 5623] the “8 ppm gall ratings” value ([1]; 8 ppm) was 0 (0=0-5%).

In the case of `Cc1cccc(-c2noc(-c3ccco3)n2)c1` [compound 5625], the “8 ppm gall ratings” value ([1]; 8 ppm) is reported as 0.33.

For `c1ccc(-c2csc(-c3cccs3)n2)cc1` [compound 5645], the “1 ppm gall rating” value ([1]; Table 1D test b) was 2^b (2=21-50%) and the “8 ppm gall rating” value ([1]; 8 ppm, Table 1D test b) was 0^b (0=0-5%).

For `Brc1cccc(-c2noc(-c3cccs3)n2)c1` [compound 5663], the “1 ppm gall rating” value ([1]; Table 1D test b) was 1.67^b, the “8 ppm gall rating” value ([1]; 8 ppm, Table 1D test b) was 0^b (0=0-5%) and the “8 ppm gall ratings” value ([1]; 8 ppm) was 0 (0=0-5%).

For `Cc1ccc(-c2nnc(-c3ccco3)o2)cc1` [compound 5666], the “8 ppm gall ratings” value ([1]; 8 ppm) was 1.33.

For `Brc1cccc(-c2nnc(-c3ccco3)o2)c1` [compound 5671], the “8 ppm gall ratings” value ([1]; 8 ppm) was 0.67.

With `Brc1cccc(-c2noc(-c3ccco3)n2)c1` [compound 5672] the “8 ppm gall ratings” value ([1]; 8 ppm) was 0 (0=0-5%).

With `c1ccc(-c2cc(-c3ccco3)n[nH]2)cc1` [compound 5725] the “1 ppm gall rating” value ([1]; Table 1D test a) was 3^a (3=51-100%) and the “8 ppm gall rating” value ([1]; 8 ppm, Table 1D test a) was 1.33^a.

`Cc1ccc(-c2noc(-c3ccco3)n2)cc1` [compound 5735] was tested, and the “1 ppm gall rating” value ([1]; Table 1D test a) was 2^a (2=21-50%) and the “8 ppm gall rating” value ([1]; 8 ppm, Table 1D test a) was 0^a (0=0-5%).

In the case of `Clc1ccccc1-c1noc(-c2cccs2)n1` [compound 5738], the “1 ppm gall rating” value ([1]; Table 1D test a) is reported as 1.33^a and the “8 ppm gall rating” value ([1]; 8 ppm, Table 1D test a) is reported as 0^a (0=0-5%).

In the case of `Cc1ccccc1-c1noc(-c2cccs2)n1` [compound 5741], the “1 ppm gall rating” value ([1]; Table 1D test a) is reported as 1^a (1=6-20%) and the “8 ppm gall rating” value ([1]; 8 ppm, Table 1D test a) is reported as 0^a (0=0-5%).

With `Clc1ccc(-c2cnc(-c3cccs3)o2)cc1` [compound 5864] the “1 ppm gall ratings” value ([1]; Table 1B test a) was 1^a (1=6-20%).

With `Cc1occc1-c1nc(-c2ccc(Cl)cc2)no1` [compound 5867] the “1 ppm gall rating” value ([1]; Table 1C test a) was 1^a (1=6-20%).

`COc1ccc(-c2noc(-c3ccoc3C)n2)cc1` [compound 5869] was tested, and the “1 ppm gall rating” value ([1]; Table 1C test a) was 1^a (1=6-20%).

`Cc1cc(Cl)ccc1-c1nnc(-c2ccoc2)o1` [compound 5876] was tested, and the “1 ppm gall rating” value ([1]; Table 1C test c) was 1.67^c.

For `Clc1ccc(-c2noc(-c3ccoc3)n2)cc1` [compound 5882], the “1 ppm gall ratings” value ([1]; Table 1B test a) was 0.67^a and the “1 ppm gall rating” value ([1]; Table 1C test c) was 0.67^c.

In the case of `Clc1ccc(-c2noc(-c3ccsc3)n2)cc1` [compound 5885], the “1 ppm gall rating” value ([1]; Table 1C test a) is reported as 1^a (1=6-20%).

In the case of `Clc1ccc(-c2cnc(-c3ccsc3)o2)cc1` [compound 5886], the “1 ppm gall rating” value ([1]; Table 1C test b) is reported as 1.33^b.

With `Clc1ccc(-c2cnc(-c3ccoc3)o2)cc1` [compound 5887] the “1 ppm gall rating” value ([1]; Table 1C test b) was 1^b (1=6-20%).

For `Cc1cc(Cl)ccc1-c1nc(-c2ccco2)no1` [compound 5969], the “1 ppm gall ratings” value ([1]; Table 1B test e) was 1^e (1=6-20%).

With `Fc1cc(Cl)ccc1-c1ncc(-c2cccs2)o1` [compound 5970] the “1 ppm gall ratings” value ([1]; Table 1B test e) was 1^e (1=6-20%).

In the case of `CCOP(=O)(SC(C)CC)N1CCSC1=O` (centres unmarked) [fosthiazate, reference compound], the “0-3 vigor 16 DAP” value [2] is reported as 3.0, the “0-3 vigor 21 DAP” value [2] is reported as 3.0 and the “feeder root (3 = ave) 31 DAP” value [2] is reported as 2.3. For the same compound, the “gall % 31 DAP” value [2] was 5%, the “root wgt (g) 31 DAP” value [2] was 26.4 g and the “top wgt (lbs) 31 DAP” value [2] was 2.01 lbs. For the same compound, the “total fruit (lbs)” value [2] was 1.25 lbs.
